Test results: the supplement of paper PMC13380429

Columns and labels:
Conditions in all cases: 72 h
[1] = tested on: Caco-2; assay: cell viability relative to DMSO; higher = less toxic
[2] = tested on: Calu-3; assay: as above
[3] = tested on: HepG2; assay: as above
[4] = tested on: U2OS; assay: as above
[5] = tested on: Vero E6; assay: as above
[6] = tested on: Caco-2; assay: relative viability EC50 (midpoint between 100% and the lowest measured viability); higher = less toxic
[7] = tested on: Calu-3; assay: as above
[8] = tested on: HepG2; assay: as above
[9] = tested on: U2OS; assay: as above
[10] = tested on: Vero E6; assay: as above
[11] = tested on: Caco-2; assay: drug sensitivity score (DSS) for viability; higher = more toxic; extreme values may be limits of the assay
[12] = tested on: Calu-3; assay: as above
[13] = tested on: HepG2; assay: as above
[14] = tested on: U2OS; assay: as above
[15] = tested on: Vero E6; assay: as above

| SMILES | cell viability ([1]; 1 nM) | cell viability ([1]; 10 nM) | cell viability ([1]; 100 nM) | cell viability ([1]; 1000 nM) | cell viability ([1]; 10000 nM) | cell viability ([2]; 1 nM) | cell viability ([2]; 10 nM) | cell viability ([2]; 100 nM) | cell viability ([2]; 1000 nM) | cell viability ([2]; 10000 nM) | cell viability ([3]; 1 nM) | cell viability ([3]; 10 nM) | cell viability ([3]; 100 nM) | cell viability ([3]; 1000 nM) | cell viability ([3]; 10000 nM) | cell viability ([4]; 1 nM) | cell viability ([4]; 10 nM) | cell viability ([4]; 100 nM) | cell viability ([4]; 1000 nM) | cell viability ([4]; 10000 nM) | cell viability ([5]; 1 nM) | cell viability ([5]; 10 nM) | cell viability ([5]; 100 nM) | cell viability ([5]; 1000 nM) | cell viability ([5]; 10000 nM) | relative viability EC50 [6] | relative viability EC50 [7] | relative viability EC50 [8] | relative viability EC50 [9] | relative viability EC50 [10] | drug sensitivity score [11] | drug sensitivity score [12] | drug sensitivity score [13] | drug sensitivity score [14] | drug sensitivity score [15] |
| --- | --- | --- | --- | --- | --- | --- | --- | --- | --- | --- | --- | --- | --- | --- | --- | --- | --- | --- | --- | --- | --- | --- | --- | --- | --- | --- | --- | --- | --- | --- | --- | --- | --- | --- | --- |
| NC1=NC(=O)N([C@H]2C[C@H](O)[C@@H](CO)O2)CN1 [KP-1212] | 89.9% | 104% | 89% | 103% | 99.8% | 93.3% | 90.5% | 94.3% | 98.9% | 98.8% | 99.1% | 95% | 100% | 98.3% | 93.9% | 92.6% | 102% | 95.5% | 99.7% | 103% | 99.8% | 98.7% | 97.9% | 92.1% | 105% | > 10 µM | > 10 µM | > 10 µM | > 10 µM | > 10 µM | 0 | 0 | 0 | 0 | 0 |
| CCN[C@@H](C)Cc1cccc(C(F)(F)F)c1 [dexfenfluramine] | 105% | 114% | 89.8% | 108% | 106% | 97.4% | 109% | 105% | 118% | 113% | 106% | 93.7% | 105% | 82.9% | 97.5% | 93.5% | 96.7% | 96.1% | 94.3% | 101% | 99.4% | 92.7% | 100% | 90.7% | 94.7% | > 10 µM | > 10 µM | > 10 µM | > 10 µM | > 10 µM | 0 | 0 | 0 | 0 | 0 |
| Cn1c(=O)cc(N2CCC[C@@H](N)C2)n(Cc2cc(F)ccc2C#N)c1=O [trelagliptin] | 101% | 98.9% | 92.3% | 104% | 95.6% | 98.9% | 110% | 105% | 102% | 107% | 96.7% | 99.1% | 88.3% | 96.5% | 88.8% | 104% | 95.6% | 96.6% | 95.1% | 106% | 102% | 98.4% | 99.2% | 103% | 98.2% | > 10 µM | > 10 µM | > 10 µM | > 10 µM | > 10 µM | 0 | 0 | 0 | 0 | 0 |
| CC(=O)NO [acetohydroxamic-acid] | 96.3% | 97.6% | 94.9% | 95.5% | 112% | 104% | 98.8% | 112% | 92.6% | 96.9% | 99.6% | 101% | 95.9% | 96.2% | 97.3% | 106% | 102% | 97.7% | 98.7% | 99.8% | 97.6% | 97.2% | 102% | 101% | 97.6% | > 10 µM | > 10 µM | > 10 µM | > 10 µM | > 10 µM | 0 | 0 | 0 | 0 | 0 |
| CN(C)Cc1ccc(S(=O)(=O)n2ccc(/C=C/C(=O)NO)c2)cc1 [resminostat] | 99.6% | 101% | 103% | 98.4% | 12.4% | 102% | 96.3% | 92.9% | 86.2% | 27.9% | 110% | 110% | 94% | 69.2% | 7.9% | 95.2% | 105% | 97.9% | 88.1% | 5.5% | 106% | 103% | 101% | 82.1% | 2% | 3.03 µM | 1.77 µM | 1.38 µM | 2.14 µM | 1.81 µM | 5.1 | 6.2 | 9.1 | 7.2 | 8.4 |
| CCCC(=O)C1CCN(c2ncnc3c2CN(C(=O)c2ccc(-c4ccccc4)cc2)CC3)CC1 [PK-THPP] | 105% | 99.8% | 100% | 100% | 75.3% | 106% | 101% | 98.9% | 105% | 101% | 98.9% | 99.1% | 91.2% | 94.9% | 93.6% | 106% | 98.9% | 103% | 97% | 95.6% | 102% | 105% | 99.7% | 104% | 98.3% | > 10 µM | > 10 µM | > 10 µM | > 10 µM | > 10 µM | 0.9 | 0 | 0 | 0 | 0 |
| O=C(O)Cc1ccc(CCNS(=O)(=O)c2ccc(Cl)cc2)cc1 [daltroban] | 104% | 104% | 94.2% | 94.1% | 94.7% | 101% | 95.3% | 102% | 116% | 105% | 95% | 90.9% | 99.8% | 104% | 95.7% | 102% | 95.3% | 99.2% | 96.1% | 99.9% | 109% | 98.4% | 109% | 107% | 89.5% | > 10 µM | > 10 µM | > 10 µM | > 10 µM | > 10 µM | 0 | 0 | 0 | 0 | 0 |
| CCOC(=O)[C@@]1(CCCCCCOc2ccc(Cl)cc2)CO1 [etomoxir] | 92.6% | 97.6% | 98.2% | 98% | 85.6% | 106% | 114% | 98.2% | 117% | 110% | 115% | 106% | 101% | 108% | 91.7% | 105% | 102% | 104% | 103% | 97.7% | 113% | 106% | 110% | 104% | 98.1% | > 10 µM | > 10 µM | > 10 µM | > 10 µM | > 10 µM | 0.4 | 0 | 0 | 0 | 0 |
| O=C(Nc1ccccc1)N1CCN(c2nc(-c3ccccc3)ns2)CC1 | 100% | 97.8% | 101% | 95.4% | 86.7% | 116% | 102% | 106% | 96.8% | 102% | 100% | 118% | 101% | 106% | 76.9% | 104% | 99.5% | 97.8% | 99.6% | 98.9% | 93.3% | 96.3% | 94.1% | 93% | 83% | > 10 µM | > 10 µM | > 10 µM | > 10 µM | > 10 µM | 0.4 | 0 | 0.6 | 0 | 0.3 |
| CNc1nc(C)nc(N[C@H]2CCC[C@@H](C(=O)NCc3ccc(C#N)cc3C(F)(F)F)C2)n1 | 87.8% | 102% | 91.8% | 98.6% | 95.1% | 93.9% | 98.1% | 97% | 93.2% | 89.4% | 99.4% | 98.7% | 103% | 94.7% | 111% | 97% | 100% | 97.9% | 107% | 99.9% | 99.3% | 96.8% | 100% | 96.8% | 108% | > 10 µM | > 10 µM | > 10 µM | > 10 µM | > 10 µM | 0 | 0 | 0 | 0 | 0 |
| CC(C(=O)O)c1ccc2c(c1)Cc1ccccc1-2 (stereo not given) [cicloprofen] | 96.8% | 97.9% | 99.9% | 102% | 107% | 95.4% | 103% | 97.6% | 93.7% | 90.5% | 101% | 93.7% | 106% | 95.7% | 112% | 96.9% | 98% | 94.4% | 98.5% | 106% | 104% | 101% | 101% | 93.8% | 101% | > 10 µM | > 10 µM | > 10 µM | > 10 µM | > 10 µM | 0 | 0 | 0 | 0 | 0 |
| O=C(NC(O)C(Cl)(Cl)Cl)NC(O)C(Cl)(Cl)Cl (stereo not given) [dicloralurea] | 96.6% | 114% | 111% | 102% | 90.1% | 94.1% | 96.2% | 102% | 86.9% | 99.5% | 96.2% | 107% | 109% | 104% | 97.4% | 97% | 92.4% | 97.6% | 94.4% | 103% | 97.6% | 101% | 95.2% | 92.4% | 103% | > 10 µM | > 10 µM | > 10 µM | > 10 µM | > 10 µM | 0 | 0 | 0 | 0 | 0 |
| Oc1cc(O)c2c(c1)O[C@H](c1ccc(O)c(O)c1)[C@@H](O)C2 [cianidanol] | 89.8% | 89.6% | 92.6% | 90.4% | 92.6% | 96.9% | 101% | 97.4% | 107% | 101% | 100% | 99.8% | 84.6% | 102% | 109% | 93.9% | 96.2% | 95.6% | 98.5% | 100% | 98% | 88.5% | 103% | 94.5% | 113% | > 10 µM | > 10 µM | > 10 µM | > 10 µM | > 10 µM | 0 | 0 | 0 | 0 | 0 |
| O=C(O)c1nc(=O)[nH]c(=O)[nH]1 [oxonic-acid] | 87.9% | 76.3% | 89.9% | 112% | 101% | 94.6% | 106% | 105% | 110% | 108% | 105% | 103% | 97.4% | 115% | 101% | 102% | 101% | 99.6% | 102% | 106% | 89.2% | 63.8% | 98.5% | 79.8% | 90.7% | > 10 µM | > 10 µM | > 10 µM | > 10 µM | > 10 µM | 0 | 0 | 0 | 0 | 0 |
| Cc1c(N(C)C)c(=O)n(-c2ccccc2)n1C [amidopyrine] | 102% | 106% | 97.9% | 110% | 84% | 105% | 109% | 99.5% | 112% | 103% | 94.7% | 92.2% | 112% | 106% | 99.7% | 95.1% | 101% | 93.2% | 99.2% | 96.4% | 97.8% | 96.4% | 104% | 97.7% | 89.2% | > 10 µM | > 10 µM | > 10 µM | > 10 µM | > 10 µM | 0.1 | 0 | 0 | 0 | 0 |
